Like-named read-outs stand apart in the source and are kept apart here.
Key:
[1] = molecular target: T1, HCV NS3/4A protease complex, BMS strain (genotype 1a) (UniProt P27958, species not given/STRAIN_BMS); assay: FRET peptide assay to monitor HCV NS3/4A proteolytic activity (BMS strain); assay type: biochemical; conditions: NS3/4A BMS strain, read-out: HCV Protease (IC50)
T1 construct: "DNA encoding the recombinant HCV NS3/4A protease complex (amino acids 1027 to 1711) for these strains" (said of H77 and J4L6S, not expressly of BMS); given for the H77/J4L6S constructs only
T1 sequence (P27958 1027-1657, stated change not applied, one chain of several): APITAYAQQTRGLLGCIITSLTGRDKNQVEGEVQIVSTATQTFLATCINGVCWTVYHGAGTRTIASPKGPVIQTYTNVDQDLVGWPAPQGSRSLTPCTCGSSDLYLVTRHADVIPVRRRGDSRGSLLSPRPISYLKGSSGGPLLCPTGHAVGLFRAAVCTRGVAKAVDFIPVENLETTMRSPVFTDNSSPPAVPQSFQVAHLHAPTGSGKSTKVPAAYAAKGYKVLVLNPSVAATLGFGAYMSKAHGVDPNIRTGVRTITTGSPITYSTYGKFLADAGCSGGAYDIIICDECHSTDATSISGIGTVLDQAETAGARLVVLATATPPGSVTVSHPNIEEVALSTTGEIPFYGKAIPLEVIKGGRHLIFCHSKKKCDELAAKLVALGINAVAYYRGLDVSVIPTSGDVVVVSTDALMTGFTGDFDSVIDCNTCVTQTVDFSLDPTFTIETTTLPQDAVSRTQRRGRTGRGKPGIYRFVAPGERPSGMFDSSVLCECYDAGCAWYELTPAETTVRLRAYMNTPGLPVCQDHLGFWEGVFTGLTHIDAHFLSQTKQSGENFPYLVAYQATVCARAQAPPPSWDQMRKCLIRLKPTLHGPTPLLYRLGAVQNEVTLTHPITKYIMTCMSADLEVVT
Source text: HCV NS3 protease complexes, derived from the BMS strain, H77 strain or J4L6S strain, were generated, as described below. These purified recombinant proteins were generated for use in a homogeneous assay (see below) to provide an indication of how effective compounds of the present disclosure would be in inhibiting HCV NS3 proteolytic activity.
Serum from an HCV-infected patient was obtained from Dr. T. Wright, San Francisco Hospital. An engineered full-length cDNA (compliment deoxyribonucleic acid) template of the HCV genome (BMS strain) was constructed from DNA fragments obtained by reverse transcription-PCR(RT-PCR) of serum RNA (ribonucleic acid) and using primers selected on the basis of homology between other genotype la strains. From the determination of the entire genome sequence, a genotype la was assigned to the HCV isolate according to the classification of Simmonds et al. (See P Simmonds, K A Rose, S Graham, S W Chan, F McOmish, B C Dow, E A Follett, P L Yap and H Marsden, J. Clin. Microbiol., 31(6), 1493-1503 (1993)). […] The infectious clones, H77 (1a genotype) and J4L6S (1b genotype) were obtained from R. Purcell (NIH) and the sequences are published in Genbank (AAB67036, see Yanagi, M., Purcell, R. H., Emerson, S. U. and Bukh, J. Proc. Natl. Acad. Sci. U.S.A. 94(16), 8738-8743 (1997); AF054247, see Yanagi, M., St Claire, M., Shapiro, M., Emerson, S. U., Purcell, R. H. and Bukh, J, Virology 244 (1), 161-172. (1998)).
The H77 and J4L6S strains were used for production of recombinant NS3/4A protease complexes. DNA encoding the recombinant HCV NS3/4A protease complex (amino acids 1027 to 1711) for these strains were manipulated as described by P. Gallinari et al. (see Gallinari P, Paolini C, Brennan D, Nardi C, Steinkuhler C, De Francesco R. Biochemistry. 38(17):5620-32, (1999)). Briefly, a three-lysine solubilizing tail was added at the 3′-end of the NS4A coding region. The cysteine in the P1 position of the NS4A-NS4B cleavage site (amino acid 1711) was changed to a glycine to avoid the proteolytic cleavage of the lysine tag. Furthermore, a cysteine to serine mutation was introduced by PCR at amino acid position 1454 to prevent the autolytic cleavage in the NS3 helicase domain. The variant DNA fragment was cloned in the pET21b bacterial expression vector (Novagen) and the NS3/4A complex was expressed in Escherichia. coli strain BL21 (DE3) (Invitrogen) following the protocol described by P. Gallinari et al. (see Gallinari P, Brennan D, Nardi C, Brunetti M, Tomei L, Steinkuhler C, De Francesco R., J. Virol. 72(8):6758-69 (1998)) with modifications. Briefly, the NS3/4A protease complex expression was induced with 0.5 millimolar (mM) Isopropyl β-D-1-thiogalactopyranoside (IPTG) for 22 hours (h) at 20° C. A typical fermentation (1 Liter (L)) yielded approximately 10 grams (g) of wet cell paste. The cells were resuspended in lysis buffer (10 mL/g) consisting of 25 mM N-(2-Hydroxyethyl)piperazine-N′-(2-Ethane Sulfonic acid) (HEPES), pH 7.5, 20% glycerol, 500 mM Sodium Chloride (NaCl), 0.5% Triton X-100, 1 microgram/milliliter (“μg/mL”) lysozyme, 5 mM Magnesium Chloride (MgCl2), 1 μg/ml DnaseI, 5 mM β-Mercaptoethanol (βME), Protease inhibitor-Ethylenediamine Tetraacetic acid (EDTA) free (Roche), homogenized and incubated for 20 minutes (min) at 4° C. The homogenate was sonicated and clarified by ultra-centrifugation at 235000 g for 1 hour (h) at 4° C. Imidazole was added to the supernatant to a final concentration of 15 mM and the pH adjusted to 8.0. The crude protein extract was loaded on a Nickel-Nitrilotriacetic acid (Ni-NTA) column pre-equilibrated with buffer B (25 mM HEPES, pH 8.0, 20% glycerol, 500 mM NaCl, 0.5% Triton X-100, 15 mM imidazole, 5 mM βME). The sample was loaded at a flow rate of 1 mL/min. The column was washed with 15 column volumes of buffer C (same as buffer B except with 0.2% Triton X-100). The protein was eluted with 5 column volumes of buffer D (same as buffer C except with 200 mM Imidazole). […]

[2] = tested on: HCV replicon (strain 1b) in HUH-7 cells; assay: HCV replicon FRET assay; assay type: cell-based; conditions: Hepatitis C virus
Source text: An HCV replicon whole cell system was established as described by Lohmann V, Korner F, Koch J, Herian U, Theilmann L, Bartenschlager R., Science 285(5424): 110-3 (1999). This system enabled us to evaluate the effects of our HCV Protease compounds on HCV RNA replication. Briefly, using the HCV strain 1b sequence described in the Lohmann paper (Assession number: AJ238799), an HCV cDNA was synthesized by Operon Technologies, Inc. (Alameda, Calif.), and the full-length replicon was then assembled in plasmid pGem9zf(+) (Promega, Madison, Wis.) using standard molecular biology techniques. The replicon consists of (i) the HCV 5′ UTR fused to the first 12 amino acids of the capsid protein, (ii) the neomycin phosphotransferase gene (neo), (iii) the IRES from encephalomyocarditis virus (EMCV), and (iv) HCV NS3 to NS5B genes and the HCV 3′ UTR. Plasmid DNAs were linearized with ScaI and RNA transcripts were synthesized in vitro using the T7 MegaScript transcription kit (Ambion, Austin, Tex.) according to manufacturer's directions. In vitro transcripts of the cDNA were transfected into the human hepatoma cell line, HUH-7. […] Resulting cell lines were characterized for positive and negative strand RNA production and protein production over time.
The HCV replicon FRET assay was developed to monitor the inhibitory effects of compounds described in the disclosure on HCV viral replication. HUH-7 cells, constitutively expressing the HCV replicon, were grown in Dulbecco's Modified Eagle Media (DMEM) (Gibco-BRL) containing 10% Fetal calf serum (FCS) (Sigma) and 1 mg/ml G418 (Gibco-BRL). Cells were seeded the night before (1.5×10^4 cells/well) in 96-well tissue-culture sterile plates. Compound and no compound controls were prepared in DMEM containing 4% FCS, 1:100 Penicillin/Streptomysin (Gibco-BRL), 1:100 L-glutamine and 5% DMSO in the dilution plate (0.5% DMSO final concentration in the assay). Compound/DMSO mixes were added to the cells and incubated for 4 days at 37° C. After 4 days, cells were first assessed for cytotoxicity using alamar Blue (Trek Diagnotstic Systems) for a CC50 reading. The toxicity of compound (CC50) was determined by adding 1/10th volume of alamar Blue to the media incubating the cells. After 4 h, the fluorescence signal from each well was read, with an excitation wavelength at 530 nm and an emission wavelength of 580 nm, using the Cytofluor Series 4000 (Perspective Biosystems). Plates were then rinsed thoroughly with Phosphate-Buffered Saline (PBS) (3 times 150 μl). The cells were lysed with 25 μl of a lysis assay reagent containing an HCV protease substrate (5× cell Luciferase cell culture lysis reagent (Promega #E153A) diluted to 1× with distilled water, NaCl added to 150 mM final, the FRET peptide substrate (as described for the enzyme assay above) diluted to 10 μM final from a 2 mM stock in 100% DMSO. The plate was then placed into the Cytofluor 4000 instrument which had been set to 340 nm excitation/490 nm emission, automatic mode for 21 cycles and the plate read in a kinetic mode. EC50 determinations were carried out as described for the IC50 determinations.

[3] = activity range symbols of Table 2
[4] = Huh-7, read-out: HCV Pro Replicon (EC50)

Row | Structure (SMILES) | IC50 [1, 3] | EC50 [2, 4] | IC50 ([1]; numeric cells of Table 2) | EC50 ([2]; Huh-7, HCV replicon, numeric cells of Table 2, read-out: HCV Pro Replicon (EC50))
1 | C=C[C@@H]1C[C@]1(NC(=O)[C@@H]1C[C@@](OC)(c2ccc(-c3ccccc3)cc2)CN1C(=O)[C@@H](NC(=O)NC(C)(C)C)C(C)(C)C)C(=O)NS(=O)(=O)C1CC1 [Cmpd 206, (2S,4R)-4-Biphenyl-4-yl-1-[(S)-2-(3-tert-butyl-ureido)-3,3-dimethyl-butyryl]-4-methoxy-pyrrolidine-2-carboxylic acid ((1R,2S)-1-cyclopropanesulfonylaminocarbonyl-2-vinyl-cyclopropyl)-amide] | 1 to 50 nM | 1 to 50 nM |  | 
2 | C=C[C@@H]1C[C@]1(NC(=O)[C@@H]1C[C@@](OC)(c2ccc(-c3ccccc3)cc2)CN1C(=O)[C@H](Nc1cccc(OC)c1)C(C)(C)C)C(=O)NS(=O)(=O)C1CC1 [Cmpd 208, (2S,4R)-4-Biphenyl-4-yl-4-methoxy-1-[(R)-2-(3-methoxy-phenylamino)-3,3-dimethyl-butyryl]-pyrrolidine-2-carboxylic acid ((1R,2S)-1-cyclopropanesulfonylaminocarbonyl-2-vinyl-cyclopropyl)-amide] |  |  | 315 nM | 1300 nM
3 | C=C[C@@H]1C[C@]1(NC(=O)[C@@H]1C[C@@](OCc2ccccc2)(c2ccc(-c3ccccc3)cc2)CN1C(=O)[C@@H](NC(=O)OC(C)(C)C)C(C)(C)C)C(=O)NS(=O)(=O)C1CC1 [Cmpd 108] | 1 to 50 nM | 1 to 50 nM |  | 
4 | C=C[C@@H]1C[C@]1(NC(=O)[C@@H]1C[C@@](OC)(c2ccc(-c3ccccc3)cc2)CN1C(=O)[C@@H](NC(=O)OC(C)(C)C)C(C)CC)C(=O)NS(=O)(=O)C1CC1 (stereo partly drawn) [Cmpd 202, {(S)-1-[(2S,4R)-4-Biphenyl-4-yl-2-((S)-(1R,2S)-1-cyclopropanesulfonylaminocarbonyl-2-vinyl-cyclopropylcarbamoyl)-4-methoxy-pyrrolidine-1-carbonyl]-2-methyl-butyl}-carbamic acid tert-butyl ester] | 1 to 50 nM | 50 to 500 nM |  | 
5 | C=C[C@@H]1C[C@]1(NC(=O)[C@@H]1C[C@@](OC)(c2ccc(-c3ccccc3)cc2)CN1C(=O)[C@@H](NC(=O)NC12CC3CC(CC(C3)C1)C2)C(C)(C)C)C(=O)NS(=O)(=O)C1CC1 [Cmpd 205, (2S,4R)-1-[(S)-2-(3-Adamantan-1-yl-ureido)-3,3-dimethyl-butyryl]-4-biphenyl-4-yl-4-methoxy-pyrrolidine-2-carboxylic acid ((1R,2S)-1-cyclopropanesulfonylaminocarbonyl-2-vinyl-cyclopropyl)-amide] | 1 to 50 nM | 1 to 50 nM |  | 
6 | C=C[C@@H]1C[C@]1(NC(=O)[C@@H]1C[C@@](OC)(c2ccc(-c3ccccc3)cc2)CN1C(=O)[C@@H](Nc1ccc(F)c(F)c1)C(C)(C)C)C(=O)NS(=O)(=O)C1CC1 [Cmpd 209, (2S,4R)-4-Biphenyl-4-yl-1-[(S)-2-(3,4-difluoro-phenylamino)-3,3-dimethyl-butyryl]-4-methoxy-pyrrolidine-2-carboxylic acid ((1R,2 S)-1-cyclopropanesulfonylaminocarbonyl-2-vinyl-cyclopropyl)-amide] | 1 to 50 nM | 1 to 50 nM |  | 
7 | CC[C@@H]1C[C@]1(NC(=O)[C@@H]1C[C@@](OC)(c2ccc(-c3ccccc3)cc2)CN1C(=O)[C@@H](NC(=O)OC(C)(C)C)C(C)(C)C)C(=O)NS(=O)(=O)C1CC1 [Cmpd 110] | 1 to 50 nM | 50 to 500 nM |  | 
8 | COC1(c2ccc(-c3ccccc3)cc2)CC(C(=O)NC2(C(=O)NS(=O)(=O)C3CC3)CC2C(F)F)N(C(=O)C(NC(=O)OC(C)(C)C)C(C)(C)C)C1 (stereo not shown) [Cmpd 109] | 1 to 50 nM | 50 to 500 nM |  | 
